What all share (format): cell-based
Assay [1] deals with Trypanosoma brucei Lister 427 VSG221 with APOL1 G0 recombinant protein. The assay can be described thus: APOL1 G0 trypanosome cell rescue assay (Example B5). Conditions: Trypanosoma brucei, 20 h, read-out: APOL1 G0 Trypanosome Rescue EC50, Trypanosoma brucei Lister 427 VSG221 with APOL1 G0 recombinant protein, 20 hours, CellTiter-Glo; geometric mean of at least 2 assay runs; † = single assay run. The method, boiled down:
(§1)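 Compounds in duplicate 2-fold, 11-point series with 0.4% DMSO final. Next, tag-free mature APOL1 variant protein went in from a 2 μg/mL solution, then trypanosomes to 250 per well. Plates incubated 20 h humidified at 37° C, equilibrated to room temperature, and CellTiter-Glo added for luminescence.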
On the technique in general: Cellular ATP, detected with luciferase, serves as a proxy for viable cell number.

Assay [2] concerns Trypanosoma brucei Lister 427 VSG221 with APOL1 G2 recombinant protein. The assay can be described thus: APOL1 G2 trypanosome cell rescue assay (Example B5). To be noted: Trypanosoma brucei, 20 h, read-out: APOL1 G2 Trypanosome Rescue EC50, Trypanosoma brucei Lister 427 VSG221 with APOL1 G2 recombinant protein, 20 hours, CellTiter-Glo; geometric mean of at least 2 assay runs; † = single assay run. In short, it runs like this: as §1

Assay [3] concerns Trypanosoma brucei Lister 427 VSG221 with APOL1 G1 recombinant protein. Description: APOL1 G1 trypanosome cell rescue assay (Example B5). To be noted: Trypanosoma brucei, 20 h, read-out: APOL1 G1 Trypanosome Rescue EC50, Trypanosoma brucei Lister 427 VSG221 with APOL1 G1 recombinant protein, 20 hours, CellTiter-Glo; geometric mean of at least 2 assay runs; † = single assay run. The method, boiled down: as §1

Assay [4] concerns HEK293 clonal cell line overexpressing APOL1 G1. The assay can be described thus: APOL1 G1 HEK293 cell rescue assay (Example B3). To be noted: Homo sapiens, HEK293, HEK293 clonal line overexpressing APOL1 G1; geometric mean of at least 2 runs; † = single run; ¥ = concentration at 50% rescue estimated (no sigmoidal curve). The method, boiled down: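 HEK293 clonal line overexpressing APOL1 G1; EC50 is half-maximal reversal of APOL1-induced cell death. Values are the geometric mean of ≥2 runs on separate days, each run the average of duplicate wells. Where no sigmoidal curve could be fitted, the concentration giving 50% rescue was estimated.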

The structures appear in SMILES notation. pEC50: −log10 of the molar value. A value given as a limit tells only on which side of the number the result lay.

For the compound `C[C@]1(O)C[C@@H](N2C(=O)CCc3cc(OCCN4CCC5(CC4)C(=O)Nc4ccc(OC(F)F)cc45)cnc32)C1` [Cmpd 325, 5-(difluoromethoxy)-1′-[2-({7-oxo-8-[(cis)-3-hydroxy-3-methylcyclobutyl]-5,6,7,8-tetrahydro-1,8-naphthyridin-3-yl}oxy)ethyl]-1,2-dihydrospiro[indole-3,4′-piperidin]-2-one], the negative logarithm of the EC50 (pEC50) (commonly −log10 of the EC50, conventionally taken in molar units) was 6.67 in assay [1], 7.11 in assay [2], 6.57 in assay [3] and 6.71 in assay [4].
For `CC(c1ncc(OCCN2CCC3(CC2)C(=O)Nc2ccc(Cl)cc23)cn1)S(C)(=O)=O` (stereo not drawn) [Compound 1, 5-Chloro-1′-(2-{[2-(1-methanesulfonylethyl)pyrimidin-5-yl]oxy}ethyl)-1,2-dihydrospiro[indole-3,4′-piperidin]-2-one], the pEC50 was 6.65 in assay [1], 7.05 in assay [2], 6.53 in assay [3] and 6.52 in assay [4].
On the same counts, the results for `CS(=O)(=O)C1(c2ncc(OCCN3CCC4(CC3)C(=O)Nc3ccc(Cl)cc34)cn2)CC1` [Compound 4, 5-chloro-1′-(2-{[2-(1-methanesulfonylcyclopropyl)pyrimidin-5-yl]oxy}ethyl)-1,2-dihydrospiro[indole-3,4′-piperidin]-2-one] are 6.94, 7.28, 6.77 and 6.75.
On the same counts, the results for `Cc1nc(-c2ccc(OCCN3CCC4(CC3)C(=O)N(C)c3ccccc34)cc2)no1` [Compound 35, 1-methyl-1′-{2-[4-(5-methyl-1,2,4-oxadiazol-3-yl)phenoxy]ethyl}-1,2-dihydrospiro[indole-3,4′-piperidin]-2-one] are below 5.40, below 5.40, below 5.40 and 6.31.
On the same counts, the results for `CC(=O)N1CCCc2cc(OCCN3CCC4(CC3)C(=O)N(C)c3ccccc34)ccc21` [Compound 36, 1′-{2-[(1-acetyl-1,2,3,4-tetrahydroquinolin-6-yl)oxy]ethyl}-1-methyl-1,2-dihydrospiro[indole-3,4′-piperidin]-2-one] are below 5.40, 5.77, below 5.40 and below 5.67.
Consider `CS(=O)(=O)c1c(F)cc(OCCN2CCC3(CC2)C(=O)Nc2ccccc23)cc1F` [Compound 42, 1′-[2-(3,5-difluoro-4-methanesulfonylphenoxy)ethyl]-1,2-dihydrospiro[indole-3,4′-piperidin]-2-one], for which the pEC50 was 5.90 in assay [1], 6.39 in assay [2], 5.73 in assay [3] and 5.97 in assay [4].
On the same counts, the results for `O=C1Nc2ccc(Cl)cc2C12CCN(CCOc1ccc(S(=O)(=O)C3CC3)cc1)CC2` [Compound 43, 5-chloro-1′-{2-[4-(cyclopropanesulfonyl)phenoxy]ethyl}-1,2-dihydrospiro[indole-3,4′-piperidin]-2-one] are 7.28, 7.71, 7.06 and 6.88.
The like results for `O=C1Nc2ccccc2C12CCN(CCOc1ccc(S(=O)(=O)C(F)F)cc1)CC2` [Compound 44, 1′-[2-(4-difluoromethanesulfonylphenoxy)ethyl]-1,2-dihydrospiro[indole-3,4′-piperidin]-2-one] were, in that order, 6.48, 6.92, 6.37 and 6.32.
On to `NC(=O)c1ccc(OCCN2CCC3(CC2)C(=O)Nc2ccc(Cl)cc23)cc1` [Compound 45, 4-(2-{5-chloro-2-oxo-1,2-dihydrospiro[indole-3,4′-piperidin]-1′-yl}ethoxy)benzamide], for which the pEC50 in assay [1] is 6.32; in assay [2] it was 6.79; in assay [3] it was 6.13; in assay [4], 6.41.
On the same counts, the results for `NC(=O)c1ccc(OCCN2CCC3(CC2)C(=O)Nc2ccc(Cl)cc23)cc1F` [Compound 46, 4-(2-{5-chloro-2-oxo-1,2-dihydrospiro[indole-3,4′-piperidin]-1′-yl}ethoxy)-2-fluorobenzamide] are 6.81, 7.30, 6.67 and 6.60.
On the same counts, the results for `Cc1cc(OCCN2CCC3(CC2)C(=O)Nc2ccc(Cl)cc23)ccc1C(N)=O` [Compound 49, 4-(2-{5-chloro-2-oxo-1,2-dihydrospiro[indole-3,4′-piperidin]-1′-yl}ethoxy)-2-methylbenzamide] are 6.67, 6.96, 6.52 and 6.59.
For the compound `CS(=O)(=O)c1ccc(OCCN2CCC3(CC2)C(=O)Nc2ccc(Cl)cc23)cc1C#N` [Compound 50, 5-(2-{5-chloro-2-oxo-1,2-dihydrospiro[indole-3,4′-piperidin]-1′-yl}ethoxy)-2-methanesulfonylbenzonitrile], the negative logarithm of the EC50 (pEC50) in assay [1] was 7.52; in assay [2], 7.99; in assay [3], 7.35; in assay [4], 7.04.
As to `CS(=O)(=O)N1CCCc2cc(OCCN3CCC4(CC3)C(=O)Nc3ccc(Cl)cc34)ccc21` [Compound 53, 5-chloro-1′-{2-[(1-methanesulfonyl-1,2,3,4-tetrahydroquinolin-6-yl)oxy]ethyl}-1,2-dihydrospiro[indole-3,4′-piperidin]-2-one], the pEC50 in assay [1] is 6.81; in assay [2], 7.32; in assay [3] it was 6.80; in assay [4], 6.66.
On to `CC(=O)N1CCCc2cc(OCCN3CCC4(CC3)C(=O)Nc3ccc(Cl)cc34)ccc21` [Compound 56, 1′-{2-[(1-acetyl-1,2,3,4-tetrahydroquinolin-6-yl)oxy]ethyl}-5-chloro-1,2-dihydrospiro[indole-3,4′-piperidin]-2-one], for which the pEC50 in assay [1] was 6.53; in assay [2], 6.92; in assay [3], 6.50; in assay [4], 6.48.
On the same counts, the results for `CC(=O)N1Cc2ccc(OCCN3CCC4(CC3)C(=O)Nc3ccc(Cl)cc34)cc2C1` [Compound 57, 1′-{2-[(2-acetyl-2,3-dihydro-1H-isoindol-5-yl)oxy]ethyl}-5-chloro-1,2-dihydrospiro[indole-3,4′-piperidin]-2-one] are 6.17, 6.74, 6.17 and 6.41.
The like results for `CNC(=O)N1CCCc2cc(OCCN3CCC4(CC3)C(=O)Nc3ccc(Cl)cc34)ccc21` [Compound 60, 6-(2-{5-chloro-2-oxo-1,2-dihydrospiro[indole-3,4′-piperidin]-1′-yl}ethoxy)-N-methyl-1,2,3,4-tetrahydroquinoline-1-carboxamide] were, in that order, 6.72, 7.18, 6.64 and 6.74.
On the same counts, the results for `O=C1Nc2ccc(Cl)cc2C12CCN(CCOc1ccc3nccnc3c1)CC2` [Compound 62, 5-chloro-1′-[2-(quinoxalin-6-yloxy)ethyl]-1,2-dihydrospiro[indole-3,4′-piperidin]-2-one] are 6.39, 6.92, 6.41 and 6.36.
Take `CS(=O)(=O)c1ccc(OCCN2CCC3(CC2)C(=O)Nc2ccc(Cl)cc23)cc1F` [Compound 63, 5-chloro-1′-[2-(3-fluoro-4-methanesulfonylphenoxy)ethyl]-1,2-dihydrospiro[indole-3,4′-piperidin]-2-one]: the negative logarithm of the EC50 (pEC50) was 6.93 in assay [1], 7.39 in assay [2], 6.79 in assay [3] and 6.80 in assay [4].
The like results for `CS(=O)(=O)c1ccc(OCCN2CCC3(CC2)C(=O)Nc2ccc(Cl)cc23)cn1` [Compound 64, 5-chloro-1′-{2-[(6-methanesulfonylpyridin-3-yl)oxy]ethyl}-1,2-dihydrospiro[indole-3,4′-piperidin]-2-one] were, in that order, 6.30, 6.78, 6.15 and 6.29.
Regarding `CN1C(=O)Cc2cc(OCCN3CCC4(CC3)C(=O)Nc3ccc(Cl)cc34)ccc21` [Compound 65, 5-chloro-1′-{2-[(1-methyl-2-oxo-2,3-dihydro-1H-indol-5-yl)oxy]ethyl}-1,2-dihydrospiro[indole-3,4′-piperidin]-2-one], the negative-log EC50 (pEC50) was 6.50 in assay [1], 7.01 in assay [2], 6.53 in assay [3] and 6.45 in assay [4].
The like results for `Cc1ccc2c(c1)C1(CCN(CCOc3ccc(S(C)(=O)=O)cc3)CC1)C(=O)N2` [Compound 66, 1′-[2-(4-methanesulfonylphenoxy)ethyl]-5-methyl-1,2-dihydrospiro[indole-3,4′-piperidin]-2-one] were, in that order, 6.61, 7.01, 6.49 and 6.49.

Values taken from patent US12344610B2, “APOL1 inhibitors and methods of use” (Maze Therapeutics, Inc., priority 2022, dated 2025).
